What was measured:
male Sprague-Dawley rats = format: in vivo, rat; conditions: minimal dose at which sexual dysfunction occurs, male rats
Source text: In summary, male rats were allowed access to sexually receptive females during a single overnight mating session and then administered antidepressants with varying degrees of clinically reported sexual deficits. […] Animals
Intact male Sprague-Dawley rats (Charles River Laboratories) arrived at 7 weeks of age and were allowed to habituate for one week prior to sexual experience or behavioral testing. Rats were group housed in same-sex colony rooms with food and water provided ad libitum. All animals were maintained under a 12:12 light-dark cycle (lights on at 6:00 am) with behavioral experiments performed during the light hours beginning at noon.
Ovariectomized female Long-Evans rats (Charles River Laboratories) were individually housed and brought into behavioral estrus weekly by subcutaneous injection of 25 ug 17-B estradiol benzoate in 0.1 ml corn oil 48 hours prior to testing, followed by subcutaneous administration of 2.5 mg progesterone in 0.1 ml corn oil 4 to 6 hours before testing.
For subjects assigned into the sexually experienced group, the following procedures were performed. Individual male rats were placed into the home cage of a a sexually receptive female for overnight mating sessions. The cage was a Plexiglas cage measuring 10×12 inches, with food and water ad libitum. Mating pairs were randomly assigned. […] Following overnight mating sessions, males and females were separated from each other and placed back into same-sex colony rooms where they were group-housed until the time of behavioral testing.
To determine the effects of female stimuli on non-contact penile erections, sexually receptive females were brought into the testing room 30 minutes prior to the start of behavioral testing in order to provide female visual, olfactory, and auditory stimuli for males. The testing arena for observing non-contact penile erections in male rats consisted of an empty rat size Plexiglas cage (11×10 inches) containing no bedding, with an aerated plastic lid and a total ceiling height of 12 inches. […] A penile erection consisted of observation of the male rat in a hunched position grasping the penis with the forepaws and followed by a series of pelvic thrusts. The number of penile erections were quantified over a 30 minute observation session.
Following sexual experience (as described above), male subjects (n=8 per group) were administered either 10 mg/kg/day fluoxetine or saline vehicle for 14 days. On the 14th day, fluoxetine treatment was co-administered with either saline or apomorphine (0.1-0.3 mg/kg, sc) or yohimbine (0.1-0.3 mg/kg, sc) or sildenafil (0.1-0.3 mg/kg, sc) in separate experiments. Non-contact penile erections were evaluated in 30 minute test sessions in the presence of sexually receptive female rats.
Fluoxetine HCl (Tocris), desipramine (Sigma, St. Louis, Mo.) and bupropion HCl (Toronto Research Chemicals, Canada) were dissolved in 0.9% sterile saline vehicle and injected intraperitoneally (i.p.) once daily. On the day of behavioral testing, antidepressants were administered intraperitoneally (i.p.) as one hour pretreatments. For reversal experiments, apomorphine (Sigma, St. Louis, Mo.), yohimbine (Sigma, St. Louis, Mo.) or sildenafil (Toronto Research Chemicals, Canada) were used. Apomorphine was dissolved in 0.9% sterile saline vehicle and injected subcutaneously (s.c.). Yohimbine was dissolved in dH2O facilitated with 1N HCl, followed by addition of 1N NaOH for titration (pH=7) and administered intraperitoneally (i.p.). Sildenafil was dissolved in 0.9% sterile saline vehicle and administered intraperitoneally (i.p.). With the exception of fluoxetine which was administered in a dose volume of 2 ml/kg, all other test compounds were administered in a dose volume of 1 ml/kg. On the day of behavioral testing, both fluoxetine and the reversal agent (apomorphine, yohimbine, or sildenafil) were co-administered as 0 minute pretreatments. […]

[1] = tested on: male Sprague Dawley CD rats; test: Reversal of MK-801 induced deficits in PPI; conditions: 3-30 mg/kg IP, MK-801 0.15 mg/kg SC

SMILES: c1cc2c3c(c1)[C@H]1CCC[C@H]1N3CCNC2 [Compound 1]
- Sexual dysfunction (MED mg/kg) (male Sprague-Dawley rats): ≧10 mg/kg
- reduction of the increase in startle produced by MK-801 ([1]; all doses tested): did significantly reduce
- attenuation of MK-801 induced disruption in gating (PPI) ([1]; any dose tested): did not show an ability to significantly attenuate

— patent publication US20070225278A1, “Methods for treating cognitive and other disorders” (priority 2006, published 2007)
